Results on 78 molecules are retold here after paper PMC12040169 (PLOS Biology, 2025).

A short description of the data set: in vitro. Particulars: human, hela cells, % viability.

The term viability denotes a read-out of living cells in per cent, often relative to untreated cells. `COc1cccc2[nH]c(C(=O)N3CCOC(c4cccc(-c5c(F)cccc5F)n4)C3)cc12` (stereo not drawn) [CBK285948]: the viability at 28.5 h, 10 µM was found to be 110%. On the same count and under the same terms, with `CC(NC(=O)C1CCN(Cc2ncc[nH]2)CC1)c1ccc(F)cc1` (stereo not drawn) [CBK148037] the figure was 97%. `CSc1ccccc1CNC(=O)Cn1nnc(-c2ccc(CN3CCC(C)CC3)cc2)n1` [CBK144573C]: the viability at 28.5 h, 10 µM is 93.2%. Same read-out and setting: under `Cc1cc(NS(=O)(=O)c2cc(C(=O)O)c(Cl)cc2F)n(C)n1` [CBK067260] stands 102%; under `Cc1ccc(C)c(C2C(C(=O)c3ccccc3Cl)=C(O)C(=O)N2c2ccc(CC(=O)O)cc2)c1` (stereo not drawn) [CBK297723], 90.7%. The same measure, in the same setting: with `Oc1cccc(/C=N/n2c(S)nnc2-c2ccncc2)c1` [CBK265300] the figure was 109%. Still for that read-out and setting: with `O=C1C(n2c(=O)[nH]c3ccccc3c2=O)CCN1CC(F)(F)F` (stereo not drawn) [CBK305264] the figure was 104%; with `CCC(=O)Nc1nc2ccccc2n1CCCN(C)C` [CBK263492], 102%.

As for `CN(C)c1cccc(-c2cc(Nc3ccc4c(c3)OCCO4)ncn2)c1` [CBK090808], the viability at 28.5 h, 10 µM was 66.3%. Same read-out and setting: under `CC1CC(C)CN(CCCNC(=O)c2cc(-c3cccs3)no2)C1` (stereo not drawn) [CBK281949] stands 93%. The same measure, in the same setting: with `COc1ccc2c(c1)C1(CC(=O)N(Cc3ccccc3)C1=O)C(=O)N2CC(=O)O` (stereo not drawn) [CBK076108] the figure was 92.5%; with `Cc1ccc(S(=O)(=O)NC[C@H]2O[C@@H](CC(=O)N3CCOCC3)[C@H](O)[C@@H]2O)cc1` [CBK288924], 87.5%; with `CC(C)CNc1nc(-c2cccnc2)cnc1N` [CBK063780], 99.5%. On the same count and under the same terms, with `CCCNc1cc(-c2cccc(Cl)c2)nc2ccnn12` [CBK037747] the figure was 112%. For the molecule `COCCc1nsc(N2CCC(Oc3cccnc3N(C)C)C2)n1` (stereo not drawn) [CBK305418], the viability at 28.5 h, 10 µM was 98.8%. Still for that read-out and setting: under `CCN1C(=O)c2ccccc2C(=O)[C@@]2(C)CN(C(=O)C(C)C)C[C@@H]12` [CBK281680] stands 91.8%; under `Nc1nc2n(n1)C1(CCCCC1)C1=C(CCCC1)N2` [CBK288219], 86.7%; under `O=C(NNC(=O)C1CCN(S(=O)(=O)c2ccc(Br)cc2)CC1)NC12CC3CC(CC(C3)C1)C2` [CBK266907], 94.5%.

As to `CCCCN(C(C)=O)c1c(CC)nc2ccc(C(=O)NCc3ccccc3OC)cn12` [CBK145761], the viability at 28.5 h, 10 µM came to 96%. On the same count and under the same terms, with `Cc1ccc(OCC(=O)Nc2ccc3c(c2)oc2ccccc23)cc1[N+](=O)[O-]` [CBK266036] the figure was 100%; with `CC(=O)NS(=O)(=O)c1ccc(-c2ccc(/C=C(/C#N)c3nc4ccc(C)cc4[nH]3)o2)cc1` [CBK264771], 109%; with `O=C(CCc1ccc(=O)[nH]n1)N1CCCCC1c1nc2cc(F)ccc2[nH]1` (stereo not drawn) [CBK291107], 105%. On the same count and under the same terms, under `Nc1cccc(Sc2ccc(C(F)(F)F)cn2)c1` [CBK089606] stands 107%; under `Fc1cccc(-c2nnc(SCc3nc4ccccc4[nH]3)n2-c2ccccc2)c1` [CBK263256], 95.3%. Same read-out and setting: with `Cc1ccc(S(=O)(=O)N2CCOCC2)cc1-c1cncc(-c2ccc(O)cc2)n1` [CBK123789] the figure was 103%. Take `O=C(Cc1c[nH]c2ccccc12)N1CCC2(CCCN(CCO)C2)C1` (stereo not drawn) [CBK132045]: the viability at 28.5 h, 10 µM worked out at 95.9%. Still for that read-out and setting: with `COc1ccc(Cl)cc1NC(=O)CC(C)(C)CC(=O)O` [CBK001236] the figure was 90.4%.

Consider `Cc1ccc(NS(=O)(=O)c2ccc(OCC(=O)Nc3ccccc3C(F)(F)F)cc2)cc1` [CBK269120], for which the viability at 28.5 h, 10 µM was 86.4%.

Turning to `O=C(O)COc1ccc(S(=O)(=O)Nc2ccc(F)cc2)cc1` [CBK268442], the viability at 28.5 h, 10 µM worked out at 105%. `Cc1cc(CS(=O)(=O)N2CCOCC2c2cccc(F)c2)no1` (stereo not drawn) [CBK304093]: the viability at 28.5 h, 10 µM came to 95.4%. Still for that read-out and setting: with `CC(N)C1CCCCN1S(=O)(=O)c1ccc(OCc2ncnn2C)cc1` (stereo not drawn) [CBK304272C] the figure was 94.3%; with `O=c1cc(CO)oc(CN2CCCCCC2)c1O` [CBK288363], 97.7%; with `COc1ccc2c(c1)CC(=O)NC21CCN(C(=O)NC(C)C)CC1` [CBK047261], 95.7%. On the same count and under the same terms, with `COC(=O)c1c(C)c(C(C)=O)n(C)c1C` [CBK012459] the figure was 117%; with `O=C(CN1CCCC[C@H]2CN(C(=O)c3cccs3)C[C@H]21)NC1CC1` [CBK285504], 90.5%; with `Oc1ccc2[nH]cc(CCNC(c3ccccc3)(c3ccccc3)c3ccccc3)c2c1` [CBK260891], 103%. Take `CC(=O)Nc1cccc(NC(=O)N(CCC#N)C2CCCCC2)c1` [CBK156367]: the viability at 28.5 h, 10 µM came to 91.9%.

With `CC(C)c1cc(C(=O)NC2CCN(c3ncccc3C#N)CC2)n(C)n1` [CBK306975], the viability at 28.5 h, 10 µM amounted to 87.1%. For the molecule `NC(=O)Cn1c(=O)n(CCc2ccccc2)c(=O)c2c3c(sc21)CCCC3` [CBK267665], the viability at 28.5 h, 10 µM amounted to 103%.

Regarding `CC(C)Nc1cc(OCc2ccc(-c3ccccc3)cc2)ncn1` [CBK115658], the viability at 28.5 h, 10 µM came to 103%.

`CCOC(=O)CC1C(=O)NCCN1Cc1ccoc1` (stereo not drawn) [CBK270066]: the viability at 28.5 h, 10 µM is 92.4%. The same measure, in the same setting: with `CC(C)c1ccc(S(=O)(=O)Nc2ccc3[nH]c(C(F)(F)F)nc3c2)cc1` [CBK044470] the figure was 90.3%; with `Cc1ccc(NC(=O)c2cnc3ccc(C)cn3c2=O)cc1` [CBK287285], 90.2%; with `O=C(Nc1nsc(-c2ccccc2)n1)c1ccc(F)cc1` [CBK113232], 87.8%.

Regarding `Cc1cn(CC(=O)NCC2(c3cccc(F)c3)CCCC2)nn1` [CBK281436], the viability at 28.5 h, 10 µM was 89.7%. Same read-out and setting: with `COC(=O)c1ccccc1NC(=O)COc1ccc(Cl)c2cccnc12` [CBK266037] the figure was 104%; with `O=C(C1=C(O)C(=O)N(CCCN2CCOCC2)C1c1cccnc1)c1cc2ccccc2o1` (stereo not drawn) [CBK266147], 104%; with `Cc1ccc(C)c(NC(=O)c2sc3cc(C)ccc3c2Cl)c1` [CBK263648], 90.3%. Still for that read-out and setting: with `Cc1csc(CNCc2c(C)nn(C)c2N(C)C)n1` [CBK304804] the figure was 103%. Consider `O=C(c1cnc(-c2ccccc2)c(-c2cccnc2)c1)N1CCC(S(=O)(=O)c2ccccc2)C1` (stereo not drawn) [CBK036685], for which the viability at 28.5 h, 10 µM was 103%.

Turning to `O=C(COc1ccccc1)Nc1ccccc1Sc1ncnc2sc3c(c12)CCCC3` [CBK266171], the viability at 28.5 h, 10 µM was 98.4%. The same measure, in the same setting: under `COc1ccc2c(c1)OC1(CCN(C(=O)C3CCCC3)CC1)CC2O` (stereo not drawn) [CBK286400] stands 84.4%. The same measure, in the same setting: under `O=C(O)c1cc(NC(=O)c2ccccc2[N+](=O)[O-])cc(C(=O)O)c1` [CBK262135] stands 81.1%; under `OCC[C@H]1CN2CCCC2CN1Cc1cccn1-c1cccc(F)c1` (stereo partly drawn) [CBK282985], 86.1%.

Regarding `CCCCC(c1cccnc1)N(C)C(=O)c1cc(CC)[nH]c(=O)c1` (stereo not drawn) [CBK307216], the viability at 28.5 h, 10 µM is 107%.

For `CCN(Cc1ccc(C#N)cc1F)C(=O)Nc1cnn(CC)c1` [CBK305702], the viability at 28.5 h, 10 µM was 93.1%.

As for `FC(F)(F)c1ccnc(OCc2cccnc2)c1` [CBK115784], the viability at 28.5 h, 10 µM worked out at 99.6%. Take `Cc1cc(C)cc(N2C(=O)NC(=O)/C(=C\c3ccccc3Br)C2=O)c1` [CBK263588]: the viability at 28.5 h, 10 µM (bulk resorufin, single well) stood at 100%.

On to `CN(C)Cc1nc2c([nH]1)c(=O)n(C)c(=O)n2C` [CBK140662], for which the viability at 28.5 h, 10 µM was found to be 99.8%. Consider `Cn1nc(-c2ccccc2)cc1[C@H]1CN2CC[C@H]1C[C@@H]2CNC(=O)N1CCOCC1` [CBK289094], for which the viability at 28.5 h, 10 µM came out at 113%. On the same count and under the same terms, under `CN1C(=O)/C(=C2\SC(=S)N(C(Cc3ccccc3)C(=O)O)C2=O)c2ccccc21` (stereo not drawn) [CBK263507] stands 99.6%; under `CN(C)CCNCc1ccc(-c2cccc(C(=O)O)c2)o1` [CBK287250], 89.9%; under `O=C(NCc1nnc(-c2cccs2)o1)C1c2ccccc2Oc2ccccc21` [CBK286297], 94.8%.

Take `Nc1ncncc1-c1noc([C@@H]2CCCN2c2ncccn2)n1` [CBK288901]: the viability at 28.5 h, 10 µM is 111%. Same read-out and setting: with `CCOc1ccc(-c2n[nH]c(C(=O)N/N=C3/C(=O)Nc4ccccc43)c2C)cc1` [CBK262889] the figure was 99.6%; with `CC(C)(C)C1=CC2=NC3(CCC3)C3C[C@](O)(Cc4ccccc4)[C@@H](O)[C@@H]3N2O1` (stereo partly drawn) [CBK303261], 95.7%; with `CN1[C@@H](CCC(=O)N2CCOCC2)CNC(=O)[C@@H]2[C@H]1CCN2C1CCCCC1` [CBK289032], 88.9%. The same measure, in the same setting: with `Cc1nc2cc(OCc3nc(C(=O)NCC4CCOC4)co3)ccc2s1` (stereo not drawn) [CBK307508] the figure was 86.1%; with `COCCNc1nc(-c2cccc(C(N)=O)c2)cnc1N` [CBK063901], 115%; with `C#CCNC(=O)[C@H]1O[C@H](CCN(C)CC#C)CC[C@@H]1O` [CBK288727], 89.6%.

As to `C[S+]([O-])CCNC(=O)c1cc2c(Cl)cccc2[nH]1` (stereo not drawn) [CBK283304], the viability at 28.5 h, 10 µM was 83.9%. Same read-out and setting: with `COc1cc(CN2CCN(c3ccccn3)CC2)cc(Br)c1O` [CBK025770] the figure was 91.9%; with `COc1ccc(CCNC(=O)c2cnc3sc(C)cn3c2=O)cc1OC` [CBK287709], 104%; with `N#CCSC1=CC(=O)CC(c2ccccc2)S1` (stereo not drawn) [CBK008460], 92.1%. The same measure, in the same setting: under `COc1ccc(Cl)c(NC(=O)NCCN2CCN(c3ccccc3)CC2)c1` [CBK268899] stands 90.7%. As for `Cc1cc(C)n2nc(C(=O)NCc3ccccn3)cc2n1` [CBK269015], the viability at 28.5 h, 10 µM worked out at 89.3%. Still for that read-out and setting: under `Cc1ccc(Cn2ncc3c(N4CCCC4)ncnc32)cc1` [CBK287601] stands 72.5%. On the same count and under the same terms, with `O=C(C[C@@H]1O[C@H](CNCc2cccc(Cl)c2)[C@@H](O)[C@H]1O)N1CCc2ccccc21` [CBK288918] the figure was 89%.
